≈ marks a conversion by molar mass, not a printed value. Where two headings read alike, the source gives them in different places.
Experiments:
urease = urease (Canavalia ensiformis, UniProt P07374); test: biochemical; assay type: biochemical; details: for IC50: urease inhibition, in vitro; for inhibition at 15 µg/mL: read-out: % Inhibition at 15 µg/mL, 15 µg/mL; for inhibition at 15 µg/mL / inhibition at 40 µg/mL / % Inhibition at 40 µg/mL: mean ± SD of three measurements; for inhibition at 40 µg/mL: read-out: % Inhibition at 40 µg/mL, 40 µg/mL
[1] = Nitric oxide scavenging assay (Garrat method, Griess reagent)
Procedure: The literature contains reports on the antioxidant activities of 6-flourobenzothiazole-substituted triazoles using DPPH assays. […] Having a phenyl ring on the pyrozoline increased the antioxidant activity in the ferric ion reduction and DPPH solution methods. […] Synthesized compounds with their calculated IC50 values are listed in Table 5 (Figure 8 and Figure 9).
The activity of newly synthesized benzothiazole derivatives was determined using the Garrat method. Griess reported the Garrat method which is followed by a diazotization reaction. Under acidic conditions, this method utilizes sodium nitroprusside as the source of nitric oxide, sulfanilamide and N-1-naphthylethylenediamine dihydrochloride to detect NO2^−, produced at the expense of nitric oxide. A known amount of tested compounds 3a–3h was dissolved in sodium nitroprusside solution (20 mM, 100 µL) and then the volume was made up to 1000 µL with phosphate buffer (200 mM, pH 7.4). This solution was incubated for 2 h at 37 °C and Griess reagent (100 µL) was added. This solution was stored for 20 min at room temperature. At 528 nm, optical density of this colored solution was observed. For positive control, ascorbic acid was used.

red blood cells = assay type: cell-based
Procedure: The haemolytic activity of benzothiazole derivatives has already been reported. […] Benzothiazole compounds with halogen substitutions show cytotoxicity towards cancer cell lines. The haemolytic activity of the newly synthesized benzothiazole derivatives were studied against Triton X-100 by a reported method.
Haemolytic activity of newly synthesized benzothiazole derivatives 3a–3h was determined using a reported method. Solutions of compounds were prepared at concentrations of 1 mg/mL in 10% DMSO with 90% water Heparinized human fresh blood (3 mL) was used that was homogeneously mixed and added into a 15 mL sterile Falcon tube. It was centrifuged for 5 min and the supernatant was removed. Chilled sterile isotonic phosphate buffer saline solution (5 mL, 7.4 pH) at 4 °C was used three times. Washed red blood cells were suspended in chilled RBS (20 mL). A haemacytometer was used for counting erythrocytes. For each assay 7.068 × 10^8 red blood cells per mL count were maintained and then diluted blood cells (180 µL) were added to the test compound (20 µL) and suspended in Eppendorf tubes. It was incubated for 35 min at 37 °C then the tubes were kept in an ice bath for 5 min and centrifuged again for 5 min. After centrifugation, the obtained supernatant was collected carefully and diluted with 900 µL of chilled PBS. All these tubes were kept in ice bath and solution (200 µL) was added into 96 well plates from each Eppendrof tube. For each essay, Triton X-100 (0.1%) was taken as positive control. For negative control, phosphate buffer was used. A microplate reader was used for determining the absorbance at 576 nm.

S. dysenteriae = test: Antibacterial activity, 96 well plate method; assay type: cell-based; details: Shigella dysenteriae, read-out: % Activity at 40 μg/mL, S. dysenteriae
Procedure: The synthesized benzothiazole derivatives were examined for their anti-bacterial activity against two Gram positive-bacterial strains (Baccilus subtiles, Staphylococcus aureus) and four Gram-negative strains (Escherichia coli, Psuedomonas aeruginosa, Shigella dysenteriae, Salmonella typhae) at concentrations of 40 and 80 μg/mL (Table 7 and Table 8). It was concluded that the potent antibacterial activities of these compounds might be due to electron withdrawing groups present on the aryl moiety in N-protected benzothiazole molecule.
These newly benzothiazole derivatives were tested for their antibacterial activities against two Gram positive strains (Baccilus subtilis, Staphylococcus aureus) and four Gram negative strains (Escherichia coli, Psuedomonas aeruginosa, Shigella dysenteriae and Salmonella typhae) using a reported protocol. Streptomycin was used as positive control. The 96 well plate method was optimized for measuring the antibacterial activities of these compounds. In each well, sterilized broth (175 µL) was added and inoculated with glycerol stock (5 µL) of a specific bacterial strain. The initial absorbance was observed between 0.12–0.19. […] After a certain waiting time (12 h), test sample (20 µL) was added to the pre-determined wells. […] The difference in absorbance values were observed and were used as an index of bacterial growth. […]

[2] = human, 35 min, 0.1 mg/mL, pH 7.4

Chain of urease (P07374 whole entry, looked up): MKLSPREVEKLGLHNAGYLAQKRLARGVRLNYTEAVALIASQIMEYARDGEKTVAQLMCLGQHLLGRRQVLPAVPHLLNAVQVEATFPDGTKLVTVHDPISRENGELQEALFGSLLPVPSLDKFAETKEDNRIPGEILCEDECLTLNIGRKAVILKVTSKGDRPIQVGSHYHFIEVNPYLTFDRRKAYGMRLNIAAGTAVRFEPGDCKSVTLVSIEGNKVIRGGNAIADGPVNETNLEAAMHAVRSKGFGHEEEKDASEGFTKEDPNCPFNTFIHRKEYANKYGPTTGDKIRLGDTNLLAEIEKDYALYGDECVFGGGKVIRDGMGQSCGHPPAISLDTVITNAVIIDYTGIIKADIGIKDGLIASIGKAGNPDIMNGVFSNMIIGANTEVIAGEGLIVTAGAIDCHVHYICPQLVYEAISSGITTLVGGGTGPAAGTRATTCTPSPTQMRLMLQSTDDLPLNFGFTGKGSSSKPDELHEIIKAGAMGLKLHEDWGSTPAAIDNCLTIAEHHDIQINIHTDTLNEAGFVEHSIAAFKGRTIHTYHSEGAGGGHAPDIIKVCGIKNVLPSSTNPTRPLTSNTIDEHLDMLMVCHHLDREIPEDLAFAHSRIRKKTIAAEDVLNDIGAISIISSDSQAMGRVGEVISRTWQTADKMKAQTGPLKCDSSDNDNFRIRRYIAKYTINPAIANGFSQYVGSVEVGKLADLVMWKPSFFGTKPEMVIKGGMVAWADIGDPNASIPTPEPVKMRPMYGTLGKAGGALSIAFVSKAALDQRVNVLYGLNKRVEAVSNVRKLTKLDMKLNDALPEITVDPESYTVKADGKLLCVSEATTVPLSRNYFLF

Row | Structure (SMILES) | IC50 (urease; IC50 (µg/mL)) [µM] | inhibition at 15 µg/mL (urease) [%] | inhibition at 40 µg/mL (urease) [%] | nitric oxide scavenging activity (in words) [1] | % lysis of RBC (red blood cells; [2]) [%] | IC50 (µg/mL) nitric oxide scavenging [1] [µg/mL] | melting point [°C] | inhibition at 40 µg/mL (S. dysenteriae) [%] | % Inhibition at 40 µg/mL (urease) [%] | IC50 (urease) [µg/mL] | % lysis of RBC (red blood cells; compound solutions 1 mg/mL in 10% DMSO, human RBC, 35 min at 37 °C, mean ± SD of three) [%]
1 | CC(=O)Nc1nc2ccc(-c3cc(C#N)cc(C(F)(F)F)c3)cc2s1 [Compound 3f, N-(6-(3-Cyano-5-(trifluoromethyl)phenyl)benzo[d]thiazol-2-yl)acetamide] | 53.1 | 42 ± 0.12 | 87.5 ± 0.26 | inactive | 44.063 ± 0.314 |  |  |  |  |  | 
2 | CC(=O)Nc1nc2ccc(-c3ccc(F)c(Cl)c3)cc2s1 [Compound 3g, N-(6-(3-Chloro-4-fluorophenyl)benzo[d]thiazol-2-yl)acetamide] | 58.9 | 42 ± 0.14 | 87 ± 0.26 |  | 43.614 ± 0.157 | 39.1 (≈ 122 µM) | 166 to 167 |  |  |  | 
3 | CC(=O)Nc1nc2ccc(-c3cc(C)cc(C)c3)cc2s1 [Compound 3h, N-(6-(3,5-Dimethylphenyl)benzo[d]thiazol-2-yl)acetamide] | 62.1 | 43.59 ± 0.13 | 90.07 ± 0.2 |  | 40.661 ± 0.216 | 32.3 (≈ 109 µM) | 205 to 207 | 3.51 ± 0.43 | 90.33 ± 0.20 |  | 
4 | CC(=O)Nc1nc2ccc(-c3ccc(C)s3)cc2s1 [Compound 3e, N-(6-(5-Methylthiophen-2-yl)benzo[d]thiazol-2-yl)acetamide] | 59.6 | 46 ± 0.12 | 87 ± 0.26 |  | 44.425 ± 0.181 | 37.1 (≈ 129 µM) |  |  |  |  | 
5 | COc1ccc(-c2ccc3nc(NC(C)=O)sc3c2)cc1 [Compound 3d, N-(6-(4-Methoxyphenyl)benzo[d]thiazol-2-yl)acetamide] | 57 | 46.5 ± 0.15 | 88.5 ± 0.24 |  | 44.078 ± 0.279 |  | 218 to 220 |  |  |  | 
6 | CC(=O)Nc1nc2ccc(-c3ccc(C)cc3)cc2s1 [Compound 3b, N-(6-(p-Tolyl)benzo[d]thiazol-2-yl)acetamide] | 58.4 | 47 ± 0.11 | 90.51 ± 0.19 |  | 44.179 ± 0.157 | 26.4 (≈ 93.5 µM) | 205 to 207 |  |  |  | 
7 | CC(=O)Nc1nc2ccc(-c3cc(C(F)(F)F)cc(C(F)(F)F)c3)cc2s1 [Compound 3c, N-(6-(3,5-bis(Trifluoromethyl)phenyl)benzo[d]thiazol-2-yl)acetamide] | 42.5 | 46.09 ± 0.1 | 90.33 ± 0.2 |  | 47.089 ± 0.130 |  |  |  | 90.07 ± 0.20 |  | 
8 | NC(N)=S [Thiourea, reference compound] |  |  |  |  |  |  |  |  |  | 23.1 | 
9 | CC(=O)Nc1nc2ccc(-c3ccccc3)cc2s1 [Compound 3a, N-(6-Phenylbenzo[d]thiazol-2-yl)acetamide] | 69.3 | 44 ± 0.12 | 83.9 ± 0.12 |  | 42.123 ± 0.479 | 32.7 (≈ 122 µM) |  |  |  |  | 
10 | CC(=O)Nc1nc2ccc(Br)cc2s1 [Compound 2, N-(6-bromobenzo[d]thiazol-2-yl)acetamide] |  |  |  |  |  |  |  |  |  |  | 44.628 ± 0.369
11 | O=C1O[C@H]([C@@H](O)CO)C(O)=C1O [Ascorbic acid, reference compound] |  |  |  |  |  | 50.43 (≈ 286 µM) |  |  |  |  | 
